In US11912699B2, “Tau-protein targeting compounds and associated” (Arvinas Operations, Inc., priority 2019, dated 2024):

What follows are compounds tested against T1, Tau P301L (Homo sapiens, UniProt P10636, P618L) (assay: In vitro tau degradation assay in CHOK1 Tau P301L cells (sarkosyl insoluble tau, WES)). Conditions: CHO-K1; remaining tau protein in sarkosyl insoluble pellet; CHOK1 Tau P301L cells treated 48 hours with test compound at 1 μM, doxycycline removed for the last 24 hours; relative to DMSO doxycycline control; read-out: Tau Protein Degradation effect at 1 μM.
T1 construct: expressed in transfected cells
T1 sequence (P10636 1-441 isoform P10636-8 P301L): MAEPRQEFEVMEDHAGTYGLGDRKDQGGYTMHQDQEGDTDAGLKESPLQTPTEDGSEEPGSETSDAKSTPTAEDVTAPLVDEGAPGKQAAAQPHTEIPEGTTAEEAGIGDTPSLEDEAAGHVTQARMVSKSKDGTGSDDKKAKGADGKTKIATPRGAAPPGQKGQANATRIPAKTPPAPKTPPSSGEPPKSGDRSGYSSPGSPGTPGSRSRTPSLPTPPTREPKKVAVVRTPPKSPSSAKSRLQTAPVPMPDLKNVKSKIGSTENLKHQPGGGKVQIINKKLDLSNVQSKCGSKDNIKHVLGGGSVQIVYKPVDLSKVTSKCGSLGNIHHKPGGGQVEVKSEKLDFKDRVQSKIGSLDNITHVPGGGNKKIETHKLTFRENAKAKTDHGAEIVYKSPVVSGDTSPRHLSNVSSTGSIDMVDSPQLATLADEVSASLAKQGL
Format: cell-based
Method: Exemplary bifunctional molecules of the present disclosure are represented by the structures in Table 1, which includes associated data. In vitro tau protein degradation data in CHOK1 Tau P301L cells, as described below, is reported based on the remaining tau protein in the sarkosyl insoluble pellet following treatment of cells for 48 hours with test compound at the 1 μM concentration where the last 24 hours doxycycline was removed. The data are represented relative to DMSO doxycycline control: • A ≤50% of tau protein remaining (>50% of tau protein degraded) • B >50% of tau protein remaining ([…] of tau protein degraded)
Data for compounds in Table 1 was generated using in vitro tau Degradation Assay protocol as described in Methods for FIGS. 2A and 2B below.
FIGS. 2A and 2B. (2A) Tau expression was induced by addition (+) of doxycycline (1 μg/ml) to ChoK1-Tau P301L clone D1.
In vitro tau Degradation Assay for FIGS. 2A and 2B. T-Rex CHOK1 cells are maintained in Ham's F-12 Nutrient Mix (ThermoFisher) plus 10% Fetal Bovine Serum Tetracycline Negative (Corning) with 10 ug/mL Blasticidin S HCl (Gibco) and 200 ug/mL Zeocin (100 mg/mL, Invitrogen). A stable clone expressing Tau P301L in the presence of doxycycline (1 μg/ml), clone D1 was selected. Compounds were diluted to indicated concentrations and used to treat cells for the indicated times. Cells were harvested from either 96, 24, 6, or 10 cm dishes coated with Poly-D-Lysine (Corning) in ice cold PBS or Buffer H+HALT Protease and phosphatase inhibitors (Thermofisher). Sarkosyl Insoluble tau was isolated as described in Eckermann et al. and Greenberg and Davies, accordingly. WES™ capillary electrophoresis analysis was performed on the Sarkosyl Insoluble tau fraction using Tau1 antibody (Milipore) unless otherwise indicated, as specified in the manufacturers specification (ProteinSimple).

Compound | remaining activity at 1 µM
O=C1CCC(N2C(=O)c3ccc(OCCOCCOCCOCCOc4ccc5cc(-n6ccc7ccncc76)ncc5c4)cc3C2=O)C(=O)N1 (centres unmarked) [Compound 384, 5-(2-(2-(2-(2-((3-(1H-pyrrolo[2,3-c]pyridin-1-yl)isoquinolin-7-yl)oxy)ethoxy)ethoxy)ethoxy)ethoxy)-2-(2,6-dioxopiperidin-3-yl)isoindoline-1,3-dione] | > 50%
Cn1c2ccncc2c2ccc(-c3ccc(O[C@H]4C[C@H](OC5CCN(CCCOc6ccc7c(c6)C(=O)N(C6CCC(=O)NC6=O)C7=O)CC5)C4)nc3)cc21 (some centres unmarked) [Compound 385, 2-(2,6-dioxopiperidin-3-yl)-5-(3-(4-((1r,3r)-3-((5-(5-methyl-5H-pyrido[4,3-b]indol-7-yl)pyridin-2-yl)oxy)cyclobutoxy)piperidin-1-yl)propoxy)isoindoline-1,3-dione] | > 50%
Cn1c2ccncc2c2ccc(-c3ccc(O[C@H]4C[C@H](CN5CC6(CN(CCOc7ccc8c(c7)C(=O)N(C7CCC(=O)NC7=O)C8=O)C6)C5)C4)nc3)cc21 (some centres unmarked) [Compound 386, 2-(2,6-dioxo-3-piperidyl)-5-[2-[2-[[3-[[5-(5-methylpyrido[4,3-b]indol-7-yl)-2-pyridyl]oxy]cyclobutyl]methyl]-2,6-diazaspiro[3.3]heptan-6-yl]ethoxy]isoindoline-1,3-dione diformate] | < 50%
Cn1c2ccncc2c2ccc(-c3ccc(O[C@H]4C[C@H](OC5CCN(CCCN6CC(Oc7ccc8c(c7)C(=O)N(C7CCC(=O)NC7=O)C8=O)C6)CC5)C4)nc3)cc21 (some centres unmarked) [Compound 388, 2-(2,6-dioxopiperidin-3-yl)-5-((1-(3-(4-((1r,3r)-3-((5-(5-methyl-5H-pyrido[4,3-b]indol-7-yl)pyridin-2-yl)oxy)cyclobutoxy)piperidin-1-yl)propyl)azetidin-3-yl)oxy) isoindoline-1,3-dione] | < 50%
Cc1ncsc1-c1ccc([C@H](C)NC(=O)[C@@H]2C[C@@H](O)CN2C(=O)[C@@H](NC(=O)CN2CCN(CCN3CCC(O[C@H]4C[C@H](Oc5ccc(-c6ccc7c8cnccc8n(C)c7c6)cn5)C4)CC3)CC2)C(C)(C)C)cc1 [Compound 389, (2S,4R)-1-((S)-3,3-dimethyl-2-(2-(4-(2-(4-((1r,3r)-3-((5-(5-methyl-5H-pyrido[4,3-b]indol-7-yl)pyridin-2-yl)oxy)cyclobutoxy)piperidin-1-yl)ethyl)piperazin-1-yl)acetamido)butanoyl)-4-hydroxy-N-((S)-1-(4-(4-methylthiazol-5-yl)phenyl)ethyl) pyrrolidine-2-carboxamide] | < 50%
Cc1ncsc1-c1ccc([C@H](C)NC(=O)[C@@H]2C[C@@H](O)CN2C(=O)[C@@H](c2cc(N3CCN(CCO[C@H]4C[C@H](Oc5ccc(-c6ccc7c8cnccc8n(C)c7c6)cn5)C4)CC3)no2)C(C)C)cc1 [Compound 391, (2S,4R)-4-hydroxy-1-((R)-3-methyl-2-(3-(4-(2-((1r,3R)-3-((5-(5-methyl-5H-pyrido[4,3-b]indol-7-yl)pyridin-2-yl)oxy)cyclobutoxy)ethyl)piperazin-1-yl)isoxazol-5-yl)butanoyl)-N-((S)-1-(4-(4-methylthiazol-5-yl)phenyl)ethyl) pyrrolidine-2-carboxamide] | < 50%
Cc1ncsc1-c1ccc([C@H](C)NC(=O)[C@@H]2C[C@@H](O)CN2C(=O)[C@@H](c2cc(OCCN3CCC(O[C@H]4C[C@H](Oc5ccc(-c6ccc7c8cnccc8n(C)c7c6)cn5)C4)CC3)no2)C(C)C)cc1 [Compound 398, (2S,4R)-4-hydroxy-1-((R)-3-methyl-2-(3-(2-(4-((1r,3R)-3-((5-(5-methyl-5H-pyrido[4,3-b]indol-7-yl)pyridin-2-yl)oxy)cyclobutoxy)piperidin-1-yl)ethoxy)isoxazol-5-yl)butanoyl)-N-((S)-1-(4-(4-methylthiazol-5-yl)phenyl)ethyl) pyrrolidine-2-carboxamide] | < 50%

Next, values leading:

remaining activity at 1 µM | Compound
< 50% | Cn1c2ccncc2c2ccc(-c3ccc(O[C@H]4C[C@H](CN5CCN(CCCCCOc6ccc7c(c6)C(=O)N(C6CCC(=O)NC6=O)C7=O)CC5)C4)nc3)cc21 (some centres unmarked) [Compound 387, 2-(2,6-dioxopiperidin-3-yl)-5-((5-(4-(((1r,3r)-3-((5-(5-methyl-5H-pyrido[4,3-b]indol-7-yl)pyridin-2-yl)oxy)cyclobutyl)methyl)piperazin-1-yl)pentyl)oxy) isoindoline-1,3-dione]
> 50% | Cn1c2ccncc2c2ccc(-c3ccc(N4CCC(CN5CCN(c6ccc7c(c6)C(=O)N(C6CCC(=O)NC6=O)C7=O)CC5)CC4)nc3)cc21 (centres unmarked) [Compound 390, 2-(2,6-dioxopiperidin-3-yl)-5-(4-[[1-(5-[5-methyl-5H-pyrido[4,3-b]indol-7-yl]pyridin-2-yl)piperidin-4-yl]methyl]piperazin-1-yl)-2,3-dihydro-1H-isoindole-1,3-dione]
> 50% | Cn1c2ccncc2c2ccc(-c3ccc(O[C@H]4C[C@H](N(C)C5CC6(C5)CN(CCOc5ccc7c(c5)C(=O)N(C5CCC(=O)NC5=O)C7=O)C6)C4)nc3)cc21 (some centres unmarked) [Compound 392, 2-(2,6-dioxopiperidin-3-yl)-5-(2-(6-(methyl((1r,3r)-3-((5-(5-methyl-5H-pyrido[4,3-b]indol-7-yl)pyridin-2-yl)oxy)cyclobutyl)amino)-2-azaspiro[3.3]heptan-2-yl)ethoxy) isindoline-1,3-dione]
< 50% | Cn1c2ccncc2c2ccc(-c3ccc(O[C@H]4C[C@H](CN5CCC(CCCCCOc6ccc7c(c6)C(=O)N(C6CCC(=O)NC6=O)C7=O)CC5)C4)nc3)cc21 (some centres unmarked) [Compound 393, 2-(2,6-dioxopiperidin-3-yl)-5-((5-(1-(((1r,3r)-3-((5-(5-methyl-5H-pyrido[4,3-b]indol-7-yl)pyridin-2-yl)oxy)cyclobutyl)methyl)piperidin-4-yl)pentyl)oxy) isoindoline-1,3-dione]
> 50% | Cn1c2ccncc2c2ccc(-c3ccc(O[C@H]4C[C@H](CN5CCC(CCCN6CC(Oc7ccc8c(c7)C(=O)N(C7CCC(=O)NC7=O)C8=O)C6)CC5)C4)nc3)cc21 (some centres unmarked) [Compound 394, 2-(2,6-dioxopiperidin-3-yl)-5-((1-(3-(1-(((1r,3r)-3-((5-(5-methyl-5H-pyrido[4,3-b]indol-7-yl)pyridin-2-yl)oxy)cyclobutyl)methyl)piperidin-4-yl)propyl)azetidin-3-yl)oxy)isoindoline-1,3-dione]
< 50% | Cn1c2ccncc2c2ccc(-c3ccc(N4CCC(CCN5CCN(c6ccc7c(c6)C(=O)N(C6CCC(=O)NC6=O)C7=O)CC5)CC4)nc3)cc21 (centres unmarked) [Compound 397, 2-(2,6-dioxopiperidin-3-yl)-5-(4-(2-(1-(5-(5-methyl-5H-pyrido[4,3-b]indol-7-yl)pyridin-2-yl)piperidin-4-yl)ethyl)piperazin-1-yl)isindoline-1,3-dione]

Same assay, conditions: remaining tau protein in sarkosyl insoluble pellet; CHOK1 Tau P301L cells treated 48 hours with test compound at 1 μM, doxycycline removed for the last 24 hours; relative to DMSO doxycycline control

Compound | Tau Protein Degradation effect at 1 μM
Cc1ncsc1-c1ccc([C@H](C)NC(=O)[C@@H]2C[C@@H](O)CN2C(=O)[C@@H](c2cc(OCCOCCOCCOc3ccc(-c4ccc5c(c4)[nH]c4ccncc45)cn3)no2)C(C)C)cc1 [Compound 396] | A (≤50% of tau protein remaining (>50% of tau protein degraded))
